How the values were obtained:
[1] = Plasma concentration of VQW-765 after the TSST by LC-MS/MS; conditions: single oral 10 mg; for Mean plasma concentration: female subjects
[2] = tested on: subjects with substantial public speaking anxiety; type: in vivo, human
[3] = tested on: subjects with substantial public speaking anxiety; assay: Trier Social Stress Test (TSST) public speaking challenge, randomized double-blind placebo-controlled study: SUDS, CGI-C, PGI-C; type: in vivo, human; parameters: key to SUDS Mean: SUDS 0–100; 0 = no distress/totally relaxed, 100 = highest anxiety ever felt; conditions: for PGI-C Mean / CGI-C Mean: Post-TSST
Description: A multicenter, randomized, double-blind, placebo-controlled study evaluates the efficacy and safety of VQW-765 in subjects with substantial public speaking anxiety. […] The study design is illustrated in FIG. 1 and Table 2 (below). Visit 1 includes screening for eligibility. At visit 2, subjects are asked for a baseline SUDS rating and then randomized to one of two arms in a 1:1 ratio. […] VQW-765 is provided in the form of capsules that are white, opaque, hard gelatin, size 3, containing 10 mg VQW-765 and lactose monohydrate, microcrystalline cellulose, methocel, croscarmellose sodium, colloidal silicon dioxide, and magnesium stearate. Placebo capsules are provided in size and appearance identical to those containing VQW-765. Two hours later, subjects are instructed to prepare for a 5-minute speech for a mock job interview (resting phase). After 3 minutes of preparation (anticipation phase), the subject delivered the speech in front of an interview panel with two clinical staff (performance phase). SUDS rating was collected at each minute from the resting to performance phase. Eligible subjects are trained to use SUDS, a self-reported rating scale from 0 to 100, used to measure the intensity of anxiety during the TSST. A SUDS rating of “0” equals “no distress/totally relaxed” and 100 equals “highest anxiety/distress that you have ever felt.” In addition, the Liebowitz Social Anxiety Score (LSAS) is administered, and blood samples are collected for pharmacogenetic analysis. LSAS is a clinician-administered rating scale used to assess how social anxiety plays a role in daily life across a variety of situations. The LSAS is used to study outcomes in clinical trials, and includes 24 items to assess both social anxiety in situations and avoidance of those situations. Each item is rated as 0, none; 1, mild; 2, moderate; or 3, severe. The maximal score is 144. After a waiting period of about two (2) hours from administration of study medication, subjects receive a modified Trier Social Stress Test (TSST) involving a public speaking challenge. The subject is instructed to prepare for a 5-minute speech for a job interview, and is asked for a SUDS rating (resting phase). Then the subject has 3 minutes to mentally prepare. A SUDS rating is collected at each minute interval (anticipation phase). Next, the subject gives a 5-minute speech to an audience of two clinical staff members dressed in white coats and previously unknown to the subject. A SUDS rating is collected just before the speech and then at each minute during the speech (performance phase). The speech is video recorded, and the video camera is observed by the subject. […] Physiological biomarkers associated with anxiety or acute stress response, including heart rate, blood pressure, body temperature, and sweating are monitored continuously by medical devices, including an ePatch Extended Holter Device throughout the Public Speaking challenge.

Cc1ccc(-c2ccc(O[C@H]3CN4CCC3CC4)cn2)cc1 [VQW-765, (R)-3-(6-p-tolyl-pyridin-3-yloxy)-1-aza-bicyclo[2.2.2]octane]
Mean plasma concentration ([1]; exposure group PC-1 (n = 7)): 0.25 nM | Mean plasma concentration ([1]; exposure group PC-2 (n = 7)): 1.18 nM | Mean plasma concentration ([1]; exposure group PC-3 (n = 8)): 1.58 nM | Mean plasma concentration ([1]; exposure group PC-4 (n = 8)): 2.06 nM | Mean plasma concentration ([1]; exposure group PC-5 (n = 8)): 2.9 nM | Mean plasma concentration ([1]; exposure group PC-6 (n = 8)): 3.82 nM | Mean plasma concentration ([1]; exposure group PC-7 (n = 8)): 5.1 nM | Mean plasma concentration ([1]; exposure group PC-8 (n = 8)): 7.04 nM | Mean plasma concentration ([1]; exposure group PC-9 (n = 8)): 9.79 nM | Mean plasma concentration ([1]; exposure group PC-10 (n = 7)): 13.39 nM | plasma concentrations in the middle 50%, second and third quartiles [1]: 1.57 to 6.32 nM | pattern of HRV change ([2]; in vivo): significant decline | pattern of HRV increase ([2]; performance and recovery phases, FIGS. 6C, 6D): steady | SUDS Mean ([3]; Female (n = 82), Anticipation phase, P-value 0.0446 vs placebo): 54.80 | SUDS Mean ([3]; Female (n = 82), Performance phase, P-value 0.0342 vs placebo): 59.55 | SUDS Mean ([3]; Female (n = 82), Pre-dose phase (baseline), P-value 0.2239 vs placebo): 34.27 | SUDS Mean ([3]; Female (n = 82), Resting phase, P-value 0.0576 vs placebo): 49.15 | SUDS Mean ([3]; Female-50% quartile of exposure (n = 38), Anticipation phase, P-value 0.0384 vs placebo): 53.07 | SUDS Mean ([3]; Female-50% quartile of exposure (n = 38), Performance phase, P-value 0.0046 vs placebo): 54.37 | SUDS Mean ([3]; Female-50% quartile of exposure (n = 38), Pre-dose phase (baseline), P-value 0.4530 vs placebo): 36.58 | SUDS Mean ([3]; Female-50% quartile of exposure (n = 38), Resting phase, P-value 0.0577 vs placebo): 47.63 | response on SUDS compared to placebo ([3]; Females, performance phase, p=0.034): larger magnitude and significant response | SUDS Mean ([3]; ITT (n = 116), Anticipation phase, single oral 10 mg, P-value 0.0890 vs placebo): 52.96 | SUDS Mean ([3]; ITT (n = 116), Performance phase, single oral 10 mg, P-value 0.1164 vs placebo): 58.60 | PGI-C Mean ([3]; ITT (n = 116), scale 1 to 7, P-value 0.3993 vs placebo): 3.4 | CGI-C Mean ([3]; ITT (n = 116), scale 1 to 7, P-value 0.4038 vs placebo): 3.6 | SUDS Mean ([3]; ITT (n = 116), Pre-dose phase (baseline), single oral 10 mg, P-value 0.2215 vs placebo): 34.66 | SUDS Mean ([3]; ITT (n = 116), Resting phase, single oral 10 mg, P-value 0.1423 vs placebo): 47.76 | SUDS Mean ([3]; ITT-50% quartile of exposure (n = 56), Anticipation phase, P-value 0.0472 vs placebo): 50.89 | SUDS Mean ([3]; ITT-50% quartile of exposure (n = 56), Performance phase, P-value 0.0332 vs placebo): 55.36 | SUDS Mean ([3]; ITT-50% quartile of exposure (n = 56), Pre-dose phase (baseline), P-value 0.3845 vs placebo): 35.89 | SUDS Mean ([3]; ITT-50% quartile of exposure (n = 56), Resting phase, P-value 0.1059 vs placebo): 46.25 | SUDS Mean ([3]; ITT-LSAS ≥ 60 (n = 97), Anticipation phase, P-value 0.1535 vs placebo): 54.05 | SUDS Mean ([3]; ITT-LSAS ≥ 60 (n = 97), Performance phase, P-value 0.1664 vs placebo): 59.67 | SUDS Mean ([3]; ITT-LSAS ≥ 60 (n = 97), Pre-dose phase (baseline), P-value 0.3225 vs placebo): 37.01 | SUDS Mean ([3]; ITT-LSAS ≥ 60 (n = 97), Resting phase, P-value 0.1509 vs placebo): 49.28 | PGI-C, difference to placebo ([3]; ITT, p=0.399): No significant differences | CGI-C, difference to placebo ([3]; ITT, p=0.404): No significant differences | intensity of anxiety as measured by the SUDS compared to placebo ([3]; ITT, performance phase, p=0.116): trend of improvement | performance anxiety compared to placebo ([3]; LSAS total score≥60 with efficacious exposures, p=0.014): significantly reduced | performance anxiety compared to placebo ([3]; females, LSAS total score≥60 with efficacious exposures, p=0.004): significantly reduced | SUDS compared to placebo ([3]; males with efficacious exposures, FIG. 5C): do not show improvement | SUDS rating compared to placebo ([3]; males, FIG. 2C): do not show improvement | SUDS rating compared to placebo ([3]; middle 50% of exposure, second and third quartiles, VQW-M (1.5-8 pmol/ml), p=0.033): significant improvement | SUDS Mean ([3]; post-hoc, Female-Efficacious exposure (n = 46), Anticipation phase, P-value 0.0116 vs placebo): 51.38 | SUDS Mean ([3]; post-hoc, Female-Efficacious exposure (n = 46), Performance phase, P-value 0.0029 vs placebo): 54.00 | CGI-C Mean ([3]; post-hoc, Female-Efficacious exposure (n = 46), P-value 0.2417 vs placebo): 3.4 | PGI-C Mean ([3]; post-hoc, Female-Efficacious exposure (n = 46), P-value 0.4655 vs placebo): 3.4 | SUDS Mean ([3]; post-hoc, Female-Efficacious exposure (n = 46), Pre-dose phase (baseline), P-value 0.4267 vs placebo): 36.30 | SUDS Mean ([3]; post-hoc, Female-Efficacious exposure (n = 46), Resting phase, P-value 0.0282 vs placebo): 46.52 | SUDS Mean ([3]; post-hoc, ITT-Efficacious exposure (n = 69), Anticipation phase, P-value 0.0165 vs placebo): 49.86 | SUDS Mean ([3]; post-hoc, ITT-Efficacious exposure (n = 69), Performance phase, P-value 0.0202 vs placebo): 54.96 | CGI-C Mean ([3]; post-hoc, ITT-Efficacious exposure (n = 69), P-value 0.4343 vs placebo): 3.5 | PGI-C Mean ([3]; post-hoc, ITT-Efficacious exposure (n = 69), P-value 0.5525 vs placebo): 3.4 | SUDS Mean ([3]; post-hoc, ITT-Efficacious exposure (n = 69), Pre-dose phase (baseline), P-value 0.3368 vs placebo): 35.51 | SUDS Mean ([3]; post-hoc, ITT-Efficacious exposure (n = 69), Resting phase, P-value 0.0471 vs placebo): 45.07 | anxiety (SUDS) during the TSST compared to placebo ([3]; post-hoc, subjects not wearing a face mask (n=5 on VQW-765, n=6 on placebo), FIG. 9): significantly less anxious | performance anxiety compared to placebo ([3]; post-hoc, subjects with efficacious exposures, p=0.020, FIG. 5A): significantly alleviated | CGI-C, difference to placebo ([3]; post-hoc, subjects with efficacious exposures, p=0.325): does not reveal any significant difference | PGI-C, difference to placebo ([3]; post-hoc, subjects with efficacious exposures, p=0.376): does not reveal any significant difference

Reference: patent publication US20240197698A1, “TREATMENT OF ACUTE ANXIETY WITH AN ALPHA-7 NICOTINIC ACETYLCHOLINE RECEPTOR MODULATOR” (Vanda Pharmaceuticals Inc., priority 2022, published 2024)
